In patent US6660255B1, “Inhibition of gene transcription by polyamide DNA-binding ligands” (California Institute of Technology, priority 1997, dated 2003):
pKd: −log10 of the molar value. Entries after “also recorded” stand apart in the source; their conditions may differ. Read-outs that look alike come from different tables or passages of the source.

Columns and labels:
[1] = tested on: 5′-TGCTGCA-3′ (the HIV-1 target sequence); format: binding
[2] = tested on: 5′-TCGTCGA-3′ (reversed orientation match site); format: binding
[3] = tested on: 5′-AGTACT-3′ site adjacent to the LEF-1 binding site; assay: DNase footprint titration on HIV-1 enhancer/promoter fragment; details: mismatch polyamide
Experimental: (§1) White, S., Baird, E. E. & Dervan, P. B. describes the pairing rules for recognition in the minor groove of DNA by pyrrole-imidazole polyamides. […] Labeled DNA was incubated with polyamide (45 minutes) and digested with DNase I under single-hit conditions.
(§2) Regions of polyamide protection were determined by analysis of the digestion products on a 6% denaturing polyacrylamide sequencing gel. Storage phosphorimage analysis of the data was used to obtain dissociation constants for the binding reactions (using Kodak Storage Phosphor Screens and a Molecular Dynamics SF PhosphorImager). Recombinant human TBP (rhTBP) was obtained from Promega and was used in footprinting and gel mobility shift experiments as recommended. The reaction mixtures also contained 100 ng of poly dG-poly dC per 10 μL gel shift reaction or 50 μL footprinting reaction. For gel mobility shift assays, 6% polyacrylamide gels (20:1, acrylamide to bisacrylamide) contained 44 mM Tris-borate, pH 8.3, 1 mM EDTA, 4 nM MgCl2 and 0.02% (v/v) NP-40. The same buffer was used for electrophoresis of 1 mm thick gels at 15 volts/cm for 2 hours at 4° C.

[4] = tested on: HIV-1 enhancer/promoter restriction fragment; assay: DNase footprint titration on HIV-1 enhancer/promoter fragment, other sites; format: binding; details: mismatch polyamide, 1-60 nM
Text: White, S., Baird, E. E. & Dervan, P. B. describes the pairing rules for recognition in the minor groove of DNA by pyrrole-imidazole polyamides. Chem. & Biol. 4, 569-578 (1997); Swalley, S. E., Baird, E. E. & Dervan, P. B. describe the sequence specificity of the β/β pairing Chem Eur. J. 3, 1600 (1997). […] For DNase I footprinting a 400-bp restriction fragment containing the HIV-1 enhancer and promoter regions was isolated from pHIV LTR-CAT plasmid DNA (obtained from Dr. K. A. Jones of The Salk Institute, La Jolla, Calif.) (P. L. Sheridan et al., describe the sequence composition of the plasmid pHIV LTR-CAT Genes Dev. 9, 2090 (1995)). Labeled DNA was incubated with polyamide (45 minutes) and digested with DNase I under single-hit conditions.
as §2, with “For gel mobility shift assays, 6% polyacrylamide gels (20:1, acrylamide to bisacrylamide) contained 44 mM Tris-borate, pH 8.3, 1 mM EDTA, 4 nM MgCl2 and 0.02% (v/v) NP-40. The same buffer was used for electrophoresis of 1 mm thick gels at 15 volts/cm for 2 hours at 4° C.” left out

[5] = tested on: 5′-WGCWGCW-3′ sequences adjacent to the HIV-1 TATA element; assay: DNase I footprint titration at sites flanking the HIV-1 TATA element; format: binding
Experimental: The recognition sites for polyamide HIV-1 are of the form 5′-WGCWGCW-3″ (where W=A or T).
as §1, §2

[6] = tested on: rhTBP binding to the HIV-1 TATA element; assay: DNase I footprinting, inhibition of TBP binding to HIV-1 LTR fragment; parameters: species or system human
Experimental: as §2

HIV-1 strain WEAU1.6 = assay: HIV-1 replication in human PBMC, p24 ELISA; format: cell-based; details: mismatch controls, alone or in combination
Experimental: PBMC were infected with the T cell-tropic HIV-1 strain WEAU1.6, or the macrophage-tropic strain SF162. […] Polyamides were added to the culture medium and the levels of HIV-1 p24 viral capsid protein in the culture media were determined on subsequent days using a standard ELISA assay.
Human PBMC were separated from whole blood collected from normal adult volunteers by density gradient centrifugation as described. […] Human PBMC were activated with 2 μg/mL PHA and 20 units/mL of IL-2 for 2-3 days prior to HIV-1 infection. […] Free virus was removed by washing the cells in medium, and polyamides added to the culture. […] Virus replication in culture was measured by HIV-1 p24 viral capsid antigen ELISA (DuPont Medical Products, Boston, Mass.).
PBMC cultures were infected with the primary HIV-1 isolate WEAU 1.6 (kindly provided by G. Shaw), and virus replication measured by release of p24 capsid antigen into the medium that was detected by antibody-capture ELISA (Dupont). Each experiment involved a separate PBMC donor.

Ets-1 ΔN331/DNA complex = assay: Gel mobility shift, Ets-1 binding to HIV-1 enhancer oligonucleotide
[7] = tested on: 5′-AGTGAA-3′ within the IE86 binding site; parameters: species or system human cytomegalovirus; details: 1-200 nM
Text: (§3) These compounds together with purified recombinant IE86 protein were used in DNase I footprint experiments with a singly end-labeled restriction fragment derived from the CMV major immediate early promoter. […] A singly-end labeled restriction fragment was used in DNase I footprinting reactions. […] Lanes 1 and 18 represent a G+A sequencing ladder. […] The location of the TATA box and the start of transcription are indicated.

[8] = tested on: IE86 binding to the CMV MIEP; assay: DNase I footprinting, IE86 binding to the crs element; parameters: species or system human cytomegalovirus; details: approximately 250 nM IE86
Text: as §3

CN(C)CCCNC(=O)CCNC(=O)c1cc(NC(=O)c2nc(NC(=O)CCNC(=O)c3cc(NC(=O)c4nc(NC(=O)CCCNC(=O)c5cc(NC(=O)c6nc(NC(=O)CCNC(=O)c7cc(NC(=O)c8nccn8C)cn7C)cn6C)cn5C)cn4C)cn3C)cn2C)cn1C [polyamide 4, ImPy-β-ImPy-γ-ImPy-β-ImPy-β-Dp]
Equilibrium association constants, 5′-aTGCTGCA-3′ ([1]; Buffer A, 24° C.): 1.5 × 10^10 (0.3) M^a | Equilibrium association constants, 5′-aTGCTGCA-3′ ([1]; Buffer A, 37° C.): 8.4 × 10^9 (2.3) M^a | Equilibrium association constants, 5′-aTGCTGCA-3′ ([1]; Buffer B (140 mM KCl, 10 mM NaCl, 1 mM MgCl2, 1 mM spermine pH 7.2), 24° C.): 1.9 × 10^10 (0.6) M^a | Equilibrium association constants, 5′-aTGCTGCA-3′ ([1]; Buffer B, 37° C.): 1.1 × 10^10 (0.2) M^a | fold higher affinity relative to unlinked analog ([1]; polyamide 4 vs 8): ~6000 fold | fold lower affinity for 5′-TCGTCGA-3′ than for 5′-TGCTGCA-3′ [2]: ~10 fold | fold reduced affinity for the 5′-AGTACT-3′ sequence [3]: > 100 fold | binding to the HIV-1 enhancer/promoter fragment [4]: failed to detect any high affinity sites; also recorded: does not bind | Ka ([5]; HIV-1 TATA box region): 2e+10 M⁻¹ | fold reduced affinity relative to the match polyamide ([5]; mismatch control polyamide): 100 fold | pKd ([5]; sites flanking the TATA element, 5′-AGCTGCA-3′ / 5′-TGCTGCA-3′, read-out: apparent/equilibrium dissociation constant (Kd)): 10.30 | inhibition of TBP binding to the HIV-1 TATA element ([6]; DNase I footprinting, 2.5-10 nM polyamide): inhibited | polyamide concentration at which TBP binding is inhibited ([6]; five-fold excess of polyamide over DNA binding sites): 2.5 nM | effect on the level of virus in the medium (HIV-1 strain WEAU1.6): had no effect | effect on Ets-1 DNA-binding / complex formation (Ets-1 ΔN331/DNA complex; polyamide preincubated with oligonucleotide, 100-400 nM): did not prevent | effect on complex formation in the same concentration range (Ets-1 ΔN331/DNA complex; titration, mismatch polyamide): virtually no effect | footprint on the CMV fragment [7]: did not give a footprint | interference with IE86 binding [8]: did not interfere
